Columns and labels:
Assay type in all cases: cell-based
DENV-2 strain 16681 = assay: Tetravalent RT-qPCR assay Protocol A, serotype 2; details: Dengue virus, DENV2, 72 h, RT-qPCR serotype 2 16681, Vero cells, 3 days
Procedure: (§1) The antiviral activity of the compounds of the invention was tested against DENV-1 strain TC974#666 (NCPV), DENV-2 strain 16681, DENV-3 strain H87 (NCPV) and DENV-4 strains H241 (NCPV) and EDEN (SG/06K2270DK1/2005; GenBank accession number QG398256) in a RT-qPCR assay. Therefore, Vero cells were infected with either DENV-1, or -2, or -3, or -4 in the presence or absence of test compounds. At day 3 post-infection, the cells were lysed and cell lysates were used to prepare cDNA of both a viral target (the 3′UTR of DENV; table 2) and a cellular reference gene (β-actin, table 2). Subsequently, a duplex real time PCR was performed on a Lightcycler480 instrument. The generated Cp value is inversely proportional to the amount of RNA expression of these targets. Inhibition of DENV replication by a test compound result in a shift of Cp's for the 3′UTR gene. On the other hand, if a test compound is toxic to the cells, a similar effect on β-actin expression will be observed. The comparative ΔΔCp method is used to calculate EC50, which is based on the relative gene expression of the target gene (3′UTR) normalized with the cellular housekeeping gene (β-actin). In addition, CC50 values were determined based on the Cp values acquired for the housekeeping gene β-actin.
(§2) The culture medium consisted of minimal essential medium supplemented with 2% of heat-inactivated fetal calf serum, 0.04% gentamycin (50 mg/mL) and 2 mM of L-glutamine. Vero cells, obtained from ECACC, were suspended in culture medium and 75 μL/well was added in 96-well plates (10000 cells/well), which already contain the antiviral compounds. Typically, these plates contain a 4-fold serial dilution of 9 dilution steps of the test compound at 200 times the final concentration in 100% DMSO (500 nL; final concentration range: 25 μM-0.00038 μM). In addition, each plate contains wells which are assigned as virus controls (containing cells and virus in the absence of compound) and cell controls (containing cells in the absence of virus and compound). Once the cells were added in the plates, the plates were incubated in a fully humidified incubator (37° C., 5% CO2) until the next day. Then, DENV-1 strain TC974#666, DENV-2 strain 16681, DENV-3 strain H87 or DENV-4 strains H241 or EDEN were added. […] In parallel, 25 μL of culture medium was added to the cell controls. Next, the plates were incubated for 3 days in a fully humidified incubator (37° C., 5% CO2). After 3 days, the supernatant was removed from the wells and the cells were washed twice with ice-cold PBS (˜100 μL). The cell pellets within the 96-well plates were stored at −80° C. for at least 1 day. Next, RNA was extracted using the Cells-to-CT™ lysis kit, according to the manufacture's guideline (Applied Biosystems). The cell lysates can be stored at −80° C. or immediately used in the reverse transcription step.
(§3) In preparation of the reverse transcription step, mix A (table 3A) was prepared and 7.57 μL/well was dispensed in a 96-well plate. After addition of 5 μL of the cell lysates, a five minute denaturation step at 75° C. was performed (table 3B). Afterwards, 7.43 μL of mix B was added (table 3C) and the reverse transcription step was initiated (table 3D) to generate cDNA.
(§4) Finally, a RT-qPCR mix was prepared, mix C (table 4A), dispensed in 96-well LightCycler qPCR plates to which 3 μL of cDNA was added and the qPCR was performed according to the conditions in table 4B on a LightCycler 480.
(§5) Using the LightCycler software and an in-house LIMS system, dose response curves for each compound were calculated and the half maximal effective concentration (EC50) and the half maximal cytotoxic concentration (CC50) were determined (Tables 6-9).

DENV-3 strain H87 = assay: Tetravalent RT-qPCR assay Protocol A, serotype 3; details: Dengue virus, DENV3, 72 h, RT-qPCR serotype 3 H87, Vero cells, 3 days
Procedure: as §1, §2, §3, §4, §5

[1] = system: DENV-4 strain EDEN (SG/06K2270DK1/2005); assay: Tetravalent RT-qPCR assay Protocol A, serotype 4 EDEN; details: Dengue virus, DENV4, 72 h, RT-qPCR serotype 4 EDEN, Vero cells, 3 days
Procedure: as §1, §2, §3, §4, §5

in vitro = details: African green monkey
Procedure: as §1, §2, §5

[2] = system: DENV-1 Djibouti strain D1/H/IMTSSA/98/606; assay: Tetravalent RT-qPCR assay Protocol B, serotype 1; details: Dengue virus, DENV1, 168 h, RT-qPCR serotype 1 Djibouti, Vero cells, 7 days
Procedure: Vero cells (4×10^4) were seeded in 96-well plates. After one day, cell culture medium was replaced with 100 μL assay medium containing a 2×, 3× or 5× serial dilution of the compound (concentration range: 50 μg/mL-0.00038 μg/mL, 50 μg/mL-0.0076 μg/mL, and 50 μg/mL-0.00013 μg/mL, respectively) and 100 μL of dengue virus dilution, where a Ct of ˜20 is achieved in RTqPCR. Following a 2 hour incubation period, the cell monolayer was washed 3 times with assay medium to remove residual, non-adsorbed virus and cultures were further incubated for either 4 days (DENV-2 NGC-Tongalike) or 7 days (DENV-1 Djibouti strain D1/H/IMTSSA/98/606, DENV-3 strain H87 prototype, DENV-4 strain H241) in the presence of the inhibitor. Supernatant was harvested and viral RNA load was determined by real-time quantitative RT-PCR. The 50% effective concentration (EC50), which is defined as the compound concentration that is required to inhibit viral RNA replication by 50%, was determined using logarithmic interpolation (Tables 7 and 8).
RNA was isolated from 100 μL supernatant with the NucleoSpin 96 Virus kit (Filter Service, Düren, Germany) as described by the manufacturer. The sequences of the TaqMan primers (DENV-For, DENV-Rev; Table 5) and TaqMan probes (DENV-Probe Table 5) were selected from non-structural gene 3 (NS3) or NSS, of the respective flaviviruses using Primer Express software (version 2.0; Applied Biosystems, Lennik, Belgium). The TaqMan probe was fluorescently labelled with 6-carboxyfluorescein (FAM) at the 5′ end as the reporter dye, and with minor groove binder (MGB) at the 3′ end as the quencher (Table 5). One-step, quantitative RT-PCR was performed in a total volume of 25 μL, containing 13.9375 μL H2O, 6.25 μL master mix (Eurogentec, Seraing, Belgium), 0.375 μL forward primer, 0.375 μL reverse primer, 1 μL probe, 0.0625 μL reverse transcriptase (Eurogentec) and 3 μL sample. RT-PCR was performed using the ABI 7500 Fast Real-Time PCR System (Applied Biosystems, Branchburg, N.J., USA) using the following conditions: 30 min at 48° C. and 10 min at 95° C., followed by 40 cycles of 15 s at 95° C. and 1 min at 60° C. The data was analyzed using the ABI PRISM 7500 SDS software (version 1.3.1; Applied Biosystems). For absolute quantification, standard curves were generated using 10-fold dilutions of template preparations of known concentrations.

| SMILES | EC50 (DENV-2 strain 16681) [nM] | EC50 (DENV-3 strain H87) [nM] | EC50 [1] [nM] | CC50 at 3 days (in vitro) [nM] | EC50 [2] [nM] |
| --- | --- | --- | --- | --- | --- |
| COc1cc(NC(C(=O)c2c[nH]c3c(F)c(F)ccc23)c2ccc(Cl)cc2OC)cc(OCCO)c1 (single isomer, unassigned) [Compound 11B, 2-(4-chloro-2-methoxyphenyl)-1-(6,7-difluoro-1H-indol-3-yl)-2-((3-(2-hydroxyethoxy)-5-methoxyphenyl)amino)ethanone] | 1 | 70 | 9.8 | 3700 | 25 |
| COc1cc(NC(C(=O)c2c[nH]c3cc(OC)ccc23)c2ccc(Cl)cc2OC)cc(OCCO)c1 (single isomer, unassigned) [Compound 5A, 2-(4-chloro-2-methoxyphenyl)-2-((3-(2-hydroxyethoxy)-5-methoxyphenyl)amino)-1-(6-methoxy-1H-indol-3-yl)ethanone] | 0.5 | 68 | 4.6 | 5200 | 19 |
| COc1cc(NC(C(=O)c2c[nH]c3c(C)c(F)ccc23)c2ccc(Cl)cc2OC)cc(OCCO)c1 (single isomer, unassigned) [Compound 2A, 2-(4-chloro-2-methoxyphenyl)-1-(6-fluoro-7-methyl-1H-indol-3-yl)-2-((3-(2-hydroxyethoxy)-5-methoxyphenyl)amino)ethanone] | 0.85 | 53 | 4.3 | – | 17 |
| COc1cc(NC(C(=O)c2c[nH]c3cc(Cl)ccc23)c2ccc(Cl)cc2OC)cc(OCCO)c1 (single isomer, unassigned) [Compound 4A, 1-(6-chloro-1H-indol-3-yl)-2-(4-chloro-2-methoxyphenyl)-2-((3-(2-hydroxyethoxy)-5-methoxyphenyl)amino)ethanone] | 0.44 | 65 | 5.2 | – | 20 |
| COc1cc(NC(C(=O)c2c[nH]c3c(C)c(Cl)ccc23)c2ccc(Cl)cc2OC)cc(OCCO)c1 (single isomer, unassigned) [Compound 3A, 2-(4-chloro-2-methoxyphenyl)-1-(6-chloro-7-methyl-1H-indol-3-yl)-2-((3-(2-hydroxyethoxy)-5-methoxyphenyl)amino)ethanone] | 0.24 | 36 | 2.9 | 3800 | 18 |
| COc1cc(NC(C(=O)c2c[nH]c3cc(F)c(F)cc23)c2ccc(Cl)cc2OC)cc(OCCO)c1 (single isomer, unassigned) [Compound 9A, 2-(4-chloro-2-methoxyphenyl)-1-(5,6-difluoro-1H-indol-3-yl)-2-((3-(2-hydroxyethoxy)-5-methoxyphenyl)amino)ethanone] | 0.79 | 63 | 4.7 | 4700 | 19 |
| COc1cc(NC(C(=O)c2c[nH]c3cc(OC)c(F)cc23)c2ccc(Cl)cc2OC)cc(OCCO)c1 (single isomer, unassigned) [Compound 7A, 2-(4-chloro-2-methoxyphenyl)-1-(5-fluoro-6-methoxy-1H-indol-3-yl)-2-((3-(2-hydroxyethoxy)-5-methoxyphenyl)amino)ethanone] | 0.91 | 70 | 6.6 | 4600 | 20 |
| COc1cc(NC(C(=O)c2c[nH]c3cc(OC)c(C)cc23)c2ccc(Cl)cc2OC)cc(OCCO)c1 (single isomer, unassigned) [Compound 6A, 2-(4-chloro-2-methoxyphenyl)-2-((3-(2-hydroxyethoxy)-5-methoxyphenyl)amino)-1-(6-methoxy-5-methyl-1H-indol-3-yl)ethanone] | 0.54 | 26 | 2.9 | – | < 15 |
| COc1cc(NC(C(=O)c2c[nH]c3cc(F)ccc23)c2ccc(Cl)cc2OC)cc(OCCO)c1 (single isomer, unassigned) [Compound 1A, 2-(4-chloro-2-methoxyphenyl)-1-(6-fluoro-1H-indol-3-yl)-2-((3-(2-hydroxyethoxy)-5-methoxyphenyl)amino)ethanone] | 1.1 | 63 | 6.2 | – | 22 |
| COc1cc(NC(C(=O)c2c[nH]c3c(F)cc(C)cc23)c2ccc(Cl)cc2OC)cc(OCCO)c1 (single isomer, unassigned) [Compound 10A, 2-(4-chloro-2-methoxyphenyl)-1-(7-fluoro-5-methyl-1H-indol-3-yl)-2-((3-(2-hydroxyethoxy)-5-methoxyphenyl)amino)ethanone] | 3.2 | 70 | 8.6 | 4100 | 20 |
| COc1cc(NC(C(=O)c2c[nH]c3c(C)cc(F)cc23)c2ccc(Cl)cc2OC)cc(OCCO)c1 (single isomer, unassigned) [Compound 8A, 2-(4-chloro-2-methoxyphenyl)-1-(5-fluoro-7-methyl-1H-indol-3-yl)-2-((3-(2-hydroxyethoxy)-5-methoxyphenyl)amino)ethanone] | 1.2 | 76 | 6.5 | 3500 | 17 |
